Converted amounts (≈) assume the structure as drawn.
Legend:
S. pyogenes PolC = S. pyogenes PolC (Streptococcus pyogenes, UniProt Q8NZB5); experiment: Inhibition of PolC primer extension activity (scintillation proximity assay); format: biochemical; conditions: serial 2-fold dilutions, XLfit
Experimental: The polC gene from Streptococcus pyogenes was overexpressed and PolC was purified as described in PCT/JUS05/15548. Primer extension activity of PolC was measured using 1 μM oligonucleotide primer-template (primer strand 5′-ACCAGTGAGACGGGCAACA (SEQ ID NO: 1), template strand 5′-[…] SEQ ID NO: 2)). Reactions contained 10 mM magnesium acetate, 50 mM Tricine/Tris pH 7.8, 2.4% (w/v) polyethylene glycol (˜8000 MW), 0.024% pluronic F68, 1 mM dithiothreitol, 20 μM dATP, 20 μM dCTP, 0.5 μM dGTP, 0.72 μM dTTP, 0.28 μM 3H-dTTP (0.005 μCi/μL), 8% DMSO and 15 nM PolC. Reactions (25 μL) were incubated for 10 minutes at room temperature and stopped by addition of an equal volume of 100 mM EDTA. Incorporation of radiolabelled dTTP was measured by scintillation proximity assay by addition of 100 μL of 1 mg/mL PEI-PVT beads in 300 mM citrate pH 3.0.
Compounds of formula (I) were tested for inhibition of S. pyogenes PolC activity. Serial 2-fold dilutions of compounds were tested for inhibition of PolC activity and IC50's were determined (XLfit). […] These compounds were specific for prokaryotic DNA polymerase, showing little or no inhibition of eukaryotic S. cerevisiae polymerase delta at concentrations up to 160 μM.

[1] = test system: S. aureus, S. pneumoniae, S. pyogenes, and E. faecalis; experiment: Broth microdilution MIC (CLSI), major Gram-positive organisms; format: cell-based; conditions: against some strains of S. aureus
Experimental: (§1) Compounds of the present invention were tested for antibacterial activity against a variety of pathogenic organisms including S. aureus, S. pneumoniae, S. pyogenes, E. faecalis, H. influenza and M. catarrhalis using a standard broth microdilution method to determine their minimum inhibitory concentrations (MICs). All compounds were tested using standard methods in accordance with CLSI guidelines (Clinical and Laboratory Standards Institute). […] Compounds of the present invention were not compromised by existing resistance to all drug classes tested, including β-lactams, glycopeptides, oxazolidinones, macrolides, and fluoroquinolones. In particular, the compound described in Example 31 was active against methicillin-(oxacillin-) resistant S. aureus (MRSA), vancomycin-intermediate S. aureus (VISA), linezolid-resistant S. aureus, methicillin-(oxacillin-) resistant S. epidermidis, macrolide-resistant S. pyogenes, macrolide-, penicillin-, and levofloxacin-resistant S. pneumoniae, and vancomycin-resistant E. faecalis (VRE).

S. aureus = experiment: Time kill kinetic studies; format: cell-based
S. pneumoniae = experiment: Time kill kinetic studies; format: cell-based
E. faecalis = experiment: Time kill kinetic studies; format: cell-based
S. epidermidis = experiment: Time kill kinetic studies; format: cell-based
S. pyogenes = experiment: Time kill kinetic studies; format: cell-based
E. faecium = experiment: Time kill kinetic studies; format: cell-based
[2] = test system: linezolid-resistant S. aureus; experiment: Antibacterial activity against resistant strains (MIC); format: cell-based
Experimental: as §1

[3] = test system: macrolide-, penicillin-, and levofloxacin-resistant S. pneumoniae; experiment: as above; format: cell-based
Experimental: as §1

[4] = test system: macrolide-resistant S. pyogenes; experiment: as above; format: cell-based
Experimental: as §1

[5] = test system: methicillin-(oxacillin-) resistant S. aureus (MRSA); experiment: as above; format: cell-based
Experimental: as §1

[6] = test system: methicillin-(oxacillin-) resistant S. epidermidis; experiment: as above; format: cell-based
Experimental: as §1

[7] = test system: vancomycin-, macrolide-, and ciprofloxacin-resistant E. faecium; experiment: as above; format: cell-based
Experimental: as §1

[8] = test system: vancomycin-intermediate S. aureus (VISA); experiment: as above; format: cell-based
Experimental: as §1

[9] = test system: vancomycin-resistant E. faecalis (VRE); experiment: as above; format: cell-based
Experimental: as §1

[10] = test system: clinically relevant resistant strains; experiment: MICs in clinically relevant resistant strains (all listed strains together); format: cell-based; conditions: for MIC: range over the resistant strains listed
Experimental: as §1

[11] = test system: MRSA, vancomycin-resistant E. faecalis (VRE), vancomycin-resistant E. faecium and macrolide-resistant S. pyogenes; experiment: MIC90 against resistant Gram-positive bacteria; format: cell-based, S. aureus
Experimental: as §1

Chain of S. pyogenes PolC (Q8NZB5 whole entry): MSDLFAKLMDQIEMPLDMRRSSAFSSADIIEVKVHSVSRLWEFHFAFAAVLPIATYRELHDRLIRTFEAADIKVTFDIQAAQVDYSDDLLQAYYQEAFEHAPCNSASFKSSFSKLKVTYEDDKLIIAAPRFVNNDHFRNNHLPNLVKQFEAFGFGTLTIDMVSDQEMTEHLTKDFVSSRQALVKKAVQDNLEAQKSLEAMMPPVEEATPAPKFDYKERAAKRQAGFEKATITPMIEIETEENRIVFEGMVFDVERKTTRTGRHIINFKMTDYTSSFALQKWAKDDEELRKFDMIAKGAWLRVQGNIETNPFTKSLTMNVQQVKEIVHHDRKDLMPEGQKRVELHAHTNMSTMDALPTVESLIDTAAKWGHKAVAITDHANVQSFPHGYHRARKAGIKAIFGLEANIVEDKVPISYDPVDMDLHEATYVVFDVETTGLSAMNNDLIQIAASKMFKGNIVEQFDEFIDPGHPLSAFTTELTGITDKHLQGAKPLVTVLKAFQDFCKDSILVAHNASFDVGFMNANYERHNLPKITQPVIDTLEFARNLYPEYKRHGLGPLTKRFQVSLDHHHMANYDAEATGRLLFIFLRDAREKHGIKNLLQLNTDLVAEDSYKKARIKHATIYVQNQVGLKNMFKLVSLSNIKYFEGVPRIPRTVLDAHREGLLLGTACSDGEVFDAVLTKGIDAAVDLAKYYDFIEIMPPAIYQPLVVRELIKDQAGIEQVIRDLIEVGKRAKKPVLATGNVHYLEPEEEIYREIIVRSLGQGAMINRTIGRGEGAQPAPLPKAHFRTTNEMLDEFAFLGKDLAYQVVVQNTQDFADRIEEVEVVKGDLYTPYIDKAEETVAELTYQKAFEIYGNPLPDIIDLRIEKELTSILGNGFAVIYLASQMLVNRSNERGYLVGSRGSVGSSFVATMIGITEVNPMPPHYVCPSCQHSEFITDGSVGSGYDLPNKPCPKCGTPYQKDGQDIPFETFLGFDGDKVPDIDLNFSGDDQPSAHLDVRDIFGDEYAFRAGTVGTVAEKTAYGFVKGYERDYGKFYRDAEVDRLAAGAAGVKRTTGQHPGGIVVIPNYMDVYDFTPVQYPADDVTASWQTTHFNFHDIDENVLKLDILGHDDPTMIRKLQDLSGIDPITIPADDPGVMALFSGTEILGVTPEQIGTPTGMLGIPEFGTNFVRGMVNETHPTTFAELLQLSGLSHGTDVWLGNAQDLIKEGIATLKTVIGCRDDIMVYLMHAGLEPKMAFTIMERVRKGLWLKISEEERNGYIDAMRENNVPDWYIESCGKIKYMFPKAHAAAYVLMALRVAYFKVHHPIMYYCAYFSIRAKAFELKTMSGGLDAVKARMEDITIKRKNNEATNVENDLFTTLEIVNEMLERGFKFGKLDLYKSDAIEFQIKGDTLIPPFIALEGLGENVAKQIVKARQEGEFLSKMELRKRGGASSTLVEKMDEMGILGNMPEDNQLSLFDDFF

COCc1csc(NC(=O)NCc2ccc(Cl)c(Cl)c2)n1 [Example 19, 1-(3,4-Dichlorobenzyl)-3-(4-(methoxymethyl)thiazol-2-yl)urea]
IC50 (S. pyogenes PolC): 0.11 to 25 µM

CCCCOCc1csc(NC(=O)NCc2ccc(Cl)c(Cl)c2)n1 [Example 21, 1-(3,4-Dichlorobenzyl)-3-(4-(butoxymethyl)thiazol-2-yl)urea]
MIC [1]: 0.12 to 4 mg/L (≈ 0.309 to 10.3 µM)

CS(=O)(=O)CCOCc1csc(NC(=O)NCc2ccc(Cl)c(Cl)c2)n1 [Example 28, 1-(3,4-Dichlorobenzyl)-3-(4-((2-(methylsulfonyl)ethoxy)methyl)thiazol-2-yl)urea]
time kill kinetics result (S. aureus): bactericidal
time kill kinetics result (S. pneumoniae): bactericidal
time kill kinetics result (E. faecalis): bactericidal
time kill kinetics result (S. epidermidis): bactericidal
time kill kinetics result (S. pyogenes): bactericidal
time kill kinetics result (E. faecium): bactericidal
activity against resistant strain [2]: active
activity against resistant strain [3]: active
activity against resistant strain [4]: active
activity against resistant strain [5]: active
activity against resistant strain ([6]; methicillin-(oxacillin-) resistant and mupirocin resistant S. epidermidis): active
activity against resistant strain [7]: active
activity against resistant strain [8]: active
activity against resistant strain ([9]; vancomycin-, macrolide-, and ciprofloxacin-resistant E. faecalis (VRE)): active
MICs in sensitive versus drug resistant strains [10]: comparable
MIC [10]: 0.5 to 4 mg/L (≈ 1.14 to 9.12 µM)
MIC90 [11]: 1 to 8 mg/L (≈ 2.28 to 18.2 µM)

O=C(NCc1ccc(Cl)c(Cl)c1)Nc1nc(COCCO)cs1 [Example 31, 1-(3,4-Dichloro-benzyl)-3-[4-(2-hydroxy-ethoxymethyl)-thiazol-2-yl]-urea]
time kill kinetics result (S. aureus): bactericidal
time kill kinetics result (S. pneumoniae): bactericidal
time kill kinetics result (E. faecalis): bactericidal
activity against resistant strain [2]: active
activity against resistant strain [3]: active
activity against resistant strain [4]: active
activity against resistant strain [5]: active
activity against resistant strain ([6]; methicillin-(oxacillin-) resistant S. epidermidis): active
activity against resistant strain [8]: active
activity against resistant strain ([9]; vancomycin-resistant E. faecalis (VRE)): active
MICs in sensitive versus drug resistant strains [10]: comparable
MIC [10]: 1 to 32 mg/L (≈ 2.66 to 85 µM)

O=C(NCc1ccc(Cl)c(Cl)c1)Nc1nc(CO)cs1 [Example 39, 1-(3,4-Dichlorobenzyl)-3-(4-(hydroxymethyl)thiazol-2-yl)urea]
IC50 (S. pyogenes PolC): 0.11 to 25 µM
MIC [1]: 0.12 to 4 mg/L (≈ 0.361 to 12 µM)

COCCOCc1csc(NC(=O)NCc2ccc3c(c2)OCO3)n1 [Example 52, 1-Benzo[1,3]dioxol-5-ylmethyl-3-[4-(2-methoxy-ethoxymethyl)-thiazol-2-yl]-urea]
MIC [1]: 0.12 to 4 mg/L (≈ 0.328 to 10.9 µM)

COCCOCc1csc(NC(=O)NCc2ccc(Br)cc2)n1 [Example 56, 1-(4-bromobenzyl)-3-(4-((2-methoxyethoxy)methyl)thiazol-2-yl)urea]
IC50 (S. pyogenes PolC): 0.11 to 25 µM

CC(=O)Nc1ccc(SCc2csc(NC(=O)NCc3ccc(Cl)c(Cl)c3)n2)cc1 [Example 149, 1-(3,4-dichlorobenzyl)-3-(4-((4-acetamidophenylthio)methyl)thiazol-2-yl)urea]
MIC [1]: 0.12 to 4 mg/L (≈ 0.249 to 8.31 µM)

Source: US8716320B2, “Antibacteriall heterocyclic ureas” (Replidyne, Inc., priority 2006, dated 2014)
